Data: ChEMBL document CHEMBL1201862, “PubChem BioAssay data set” (2004)
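Protocol summary: plate cells (96-well), add compound at 5 concentrations, incubate 48 h, interpolate endpoints linearly. GI50 = concentration required for 50% inhibition of growth.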 Active and inactive are the calls of the source. No stated cut-off is given here; in the data, active = GI50 up to about 1.1 µM and inactive = higher.

Columns and labels:
Assay in all cases: NCI anticancer screen, dose series, 48 h
[1] = test system: BT-549
[2] = test system: HCC 2998
[3] = test system: SK-MEL-5
[4] = test system: HOP-62
[5] = test system: SN12C
[6] = test system: MDA-N
[7] = test system: SF-539
[8] = test system: Malme-3M
[9] = test system: SF-268
[10] = test system: HCT-116
[11] = test system: T47D
[12] = test system: OVCAR-8
[13] = test system: EKVX
[14] = test system: COLO 205
[15] = test system: HOP-92
[16] = test system: MCF7
[17] = test system: IGROV-1
[18] = test system: MDA-MB-435
[19] = test system: A549
[20] = test system: OVCAR-3
[21] = test system: SK-MEL-28
[22] = test system: HL-60
[23] = test system: SK-OV-3
[24] = test system: NCI-H23
[25] = test system: SF-295
[26] = test system: 786-0
[27] = test system: NCI/ADR-RES
[28] = test system: UO-31
[29] = test system: KM12
[30] = test system: K562
[31] = test system: SNB-19
[32] = test system: RPMI-8226
[33] = test system: SNB-75
[34] = test system: UACC-257
[35] = test system: A498
[36] = test system: HT-29
[37] = test system: NCI-H522
[38] = test system: M14
[39] = test system: NCI-H460
[40] = test system: OVCAR-4
[41] = test system: NCI-H226
[42] = test system: TK-10
[43] = test system: UACC-62
[44] = test system: SR
[45] = test system: LOX IMVI
[46] = test system: DU-145
[47] = test system: SW-620
[48] = test system: CAKI-1
[49] = test system: OVCAR-5
[50] = test system: CCRF-CEM
[51] = test system: RXF 393
[52] = test system: HCT-15
[53] = test system: ACHN
[54] = test system: Hs-578T

NCC(=O)NC1(c2cc3ccccc3s2)CCCCC1 was tested, and the GI50 [1] was 54.1 µM (inactive), the GI50 [2] was 15.6 µM (inactive) and the GI50 [3] was 17.8 µM (inactive). For the same compound, the GI50 [4] was > 100 µM (inactive), the GI50 [5] was 79.1 µM (inactive) and the GI50 [6] was 38.8 µM (inactive). The GI50 [7] was 50.9 µM (inactive), the GI50 [8] was 17.6 µM (inactive) and the GI50 [9] was 28.4 µM (inactive). The GI50 [10] was 42.7 µM (inactive), the GI50 [11] was 40 µM (inactive) and the GI50 [12] was > 100 µM (inactive). The GI50 [13] was 19.9 µM (inactive), the GI50 [14] was 17.9 µM (inactive) and the GI50 [15] was 22.2 µM (inactive). For the same compound, the GI50 [16] was 27.2 µM (inactive), the GI50 [17] was 61.1 µM (inactive) and the GI50 [18] was 37.8 µM (inactive). The GI50 [19] was 74.1 µM (inactive), the GI50 [20] was > 100 µM (inactive) and the GI50 [21] was 19 µM (inactive). The GI50 [22] was 18.5 µM (inactive), the GI50 [23] was 67.6 µM (inactive) and the GI50 [24] was 71.4 µM (inactive). The GI50 [25] was 59.7 µM (inactive), the GI50 [26] was 41.4 µM (inactive) and the GI50 [27] was 48.5 µM (inactive). The GI50 [28] was 45.9 µM (inactive), the GI50 [29] was 40.6 µM (inactive) and the GI50 [30] was 5.68 µM (inactive). The GI50 [31] was > 100 µM (inactive), the GI50 [32] was 21.8 µM (inactive) and the GI50 [33] was 28.3 µM (inactive). For the same compound, the GI50 [34] was 17.4 µM (inactive), the GI50 [35] was 31 µM (inactive) and the GI50 [36] was 18.6 µM (inactive). For the same compound, the GI50 [37] was 41.4 µM (inactive), the GI50 [38] was 17.6 µM (inactive) and the GI50 [39] was 33.5 µM (inactive). The GI50 [40] was 50.8 µM (inactive), the GI50 [41] was 18.7 µM (inactive) and the GI50 [42] was 36 µM (inactive). For the same compound, the GI50 [43] was 19.7 µM (inactive), the GI50 [44] was < 0.01 µM (active) and the GI50 [45] was 51.1 µM (inactive). For the same compound, the GI50 [46] was > 100 µM (inactive), the GI50 [47] was 91 µM (inactive) and the GI50 [48] was > 100 µM (inactive). The GI50 [49] was 40.5 µM (inactive), the GI50 [50] was 22 µM (inactive) and the GI50 [51] was 42.3 µM (inactive). For the same compound, the GI50 [52] was 61.1 µM, the GI50 [53] was 23.3 µM (inactive) and the GI50 [54] was 27.7 µM (inactive).
